In PMC5361054, “Exploring the Association of Surface Plasmon Resonance with Recombinant MHC:Ig Hybrid Protein as a Tool for Detecting T Lymphocytes in Mice Infected with Leishmania (Leishmania) amazonensis” (BioMed Research International, 2017):

Assays:
[1] = target: H-2 L^d:Ig (DimerX) protein; experiment: SPR kinetics of synthetic peptide binding to immobilized DimerX; parameters: species or system Mouse; conditions: for Kd: KD = kd/ka from SPR at 25°C, read-out: affinity constant (KD); for association constant (ka) / dissociation constant (kd): SPR, DimerX immobilized on carboxylated sensor chip by EDC/NHS, peptide in PBS, neutral pH, 25°C
Method: Surface Functionalization of Sensor Chip (Steps 1 and 2). The functionalization process was performed in eight steps using running buffer (10 mM HEPES, 3 mM EDTA, 150 mM NaCl, and 0.005% Tween 20, pH 7.4) at a continuous flow rate (Fr): (i) injection of 10 μL of 50 mM HCl (Fr = 10 μL/min); (ii) injection of 100 μL 10 mM CH3COOH (Fr = 50 μL/min); (iii) injection of 150 μL of coupling agents (1 : 1) 400 mM EDC : NHS (Fr = 15 μL/min); (iv) injection of 100 μL 10 mM CH3COOH (Fr = 50 μL/min); (v) injection of 100 μL (0.5 μg) of DimerX H-2 L^d:Ig (Fr = 10 μL/min); (vi) injection of 100 μL 10 mM CH3COOH (Fr = 50 μL/min); (vii) injection of 150 μL 100 mM ethanolamine (Fr = 20 μL/min); and (viii) injection of 200 μL 50 mM HCl (Fr = 50 μL/min).
Complex Formation of H-2 L ^d :Ig/Peptide (Step 3). Binding of peptides to protein DimerX was performed through the injection of 100 μL of each synthetic peptide over the functionalized sensor chip (Fr = 10 μL/min). The peptides (2 mg/mL) were diluted in filtrated PBS, which was also used as the running buffer. The concentration of peptides for binding to the DimerX was determined according to the manufacturer's instructions:(1) Mp=MH·R·Dp/DH, where Mp is micrograms of the peptide, MH is micrograms of H-2 in the reaction, R is molar excess (160 mol) between the peptide and protein H-2, Dp is molecular weight of the peptide, and DH is molecular weight of DimerX (250,000 Da).
Affinity Constants and Gibbs Free Energy. […] The following calculation was used to obtain the KD for interactions that rapidly reach equilibrium:(2) KD=kd/ka. The formation of molecular complex between DimerX and peptides complex was also analyzed to calculate the Gibbs free energy of dissociation. This energy is related to the equilibrium constant (Keq) of the transition state between the product (DimerX/peptide) and its transient state. The values of Keq were calculated using the ka and kd data obtained from the SPR assay at 25°C:(3) ΔG^°=−RTln1/Keq.
The kinetic parameters of DimerX/peptides complexes were assessed, prior to the ex vivo assay with the mouse cells, to ensure that the assayed peptides could stably bind to the H-2 cleft of DimerX proteins. The DimerX proteins were immobilized onto the sensor chip using the EDC/NHS methodology for covalent binding and, thus, we assumed that the α1 and α2 domains of the recombinant H-2 were free to interact with the synthetic peptides in solution. The RU value obtained after DimerX immobilization was taken as reference to define the baseline to measure peptides binding (Figure 1).

[2] = tested on: lymph node cells (T lymphocytes) from L. (L.) amazonensis-infected BALB/c mice; experiment: SPR interaction of lymph node cells with immobilized DimerX/peptide complexes; format: cell-based; conditions: for RUs (subtractive dissociation response) 3rd week: 3rd week of infection; for RUs (subtractive dissociation response) 4th week: 4th week of infection; for RUs (subtractive dissociation response) 6th week: 6th week of infection; for RUs (subtractive dissociation response) 18th week: 18th week of infection; for trend of reactivity of peptide-reactive T lymphocytes along the infection: weeks 1 to 18 of infection, result in words; for RUs (subtractive dissociation response) 12th week: 12th week of infection
Method: BALB/c 5–7-week-old female mice (H-2 haplotype^d) were obtained from the animal care facility of Fiocruz (Centro de Criação de Animais de Laboratório (CECAL), Fiocruz). For the experimental infections, each animal was inoculated subcutaneously with 1.0 × 10^5 stationary-phase promastigotes in PBS (50 μL) in the left hind paw. For in vitro and ex vivo assays, cells were isolated from the lesion-draining popliteal lymph nodes of five mice infected with L. (L.) amazonensis. After isolating and counting the viable cells, these were adjusted and resuspended in RPMI medium supplemented with 2% FCS (5.0 × 10^5 cells/mL). All procedures using animals were previously approved by the Animal Ethics Committee of Fiocruz (Comissão de Ética no Uso de Animais (CEUA), Fiocruz; L-0006/07).
Interaction of the Cells with the Complex DimerX/Peptide (Step 4). The reflectance values were expressed as resonance units per second (RU/s). In these assays, the kinetics of association and dissociation between immobilized DimerX/peptide complexes and lymph node cells were determined. These assays were performed with 10^4 cells suspended in PBS in a final volume of 100 μL (Fr = 5 μL/min).
Regeneration of the Sensor Chips (Step 5). The regeneration was performed by the injection of 250 μL of 30 mM HCl (Fr = 50 μL/min) into the system, followed by the injection of 200 μL PBS (Fr = 50 μL/min). After this procedure, only the DimerX molecules were left on the sensor chip surface; thus they were able to form new complexes with different peptides and interact again with cells.
Lymph node cells were injected onto SPR chips covered by immobilized DimerX/peptides complexes (Figure 4). In these experiments, due to the complexity to define the kinetic parameters for whole cells, the RU values for association (RUa) and dissociation (RUd) were used as standards to assess interaction of cells with the complexes. Also, as the stability of RUd signal over time relates to the stability of interaction, it was used as parameter to define the binding of reactive cells.
Furthermore, experimental evidences support the hypothesis that the binding of the cells from infected mice to the immobilized complexes is specific, once the RUd values obtained for these interactions were consistently higher that those observed for the interaction of cells from noninfected mice. The RU values obtained by the subtraction of the nonspecific interaction RU (cells from noninfected animals) from the specific interaction RU (cells from infected mice) were considered as representative of the binding effectiveness (Table 2). These effectiveness RU values allowed observing a different trend of T lymphocytes recognition for each peptide tested throughout the experimental infection timeline (Table 2).

[3] = RUd of cells from infected mice minus RUd of cells from noninfected mice, 10^4 cells in PBS

H-2 L^d:Ig (DimerX) protein, sequence (P01897 25-298 limits assumed): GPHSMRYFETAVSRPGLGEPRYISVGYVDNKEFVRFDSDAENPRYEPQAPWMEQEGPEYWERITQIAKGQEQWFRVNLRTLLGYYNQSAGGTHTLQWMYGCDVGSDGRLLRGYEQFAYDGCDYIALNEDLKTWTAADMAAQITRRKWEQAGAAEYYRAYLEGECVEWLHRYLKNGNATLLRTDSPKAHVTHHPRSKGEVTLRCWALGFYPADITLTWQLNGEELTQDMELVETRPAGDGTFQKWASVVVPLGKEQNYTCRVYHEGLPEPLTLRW
H-2 L^d:Ig (DimerX) protein, sequence (P01887 21-119, further chain): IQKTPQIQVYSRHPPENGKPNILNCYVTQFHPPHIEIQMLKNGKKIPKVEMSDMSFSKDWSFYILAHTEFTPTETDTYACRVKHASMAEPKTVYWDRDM

| Sequence | Kd [1] [nM] | association constant (ka) [1] | dissociation constant (kd) [1] [S^−1] | RUs (subtractive dissociation response) 3rd week [2, 3] [RU] | RUs (subtractive dissociation response) 4th week [2, 3] [RU] | RUs (subtractive dissociation response) 6th week [2, 3] [RU] | RUs (subtractive dissociation response) 18th week [2, 3] [RU] | trend of reactivity of peptide-reactive T lymphocytes along the infection [2] | RUs (subtractive dissociation response) 12th week [2, 3] [RU] | RUs (subtractive dissociation response) 1st week ([2]; RUd of cells from infected mice minus RUd of cells from noninfected mice, 10^4 cells in PBS, 1st week of infection) [RU] |
| --- | --- | --- | --- | --- | --- | --- | --- | --- | --- | --- |
| CLGGGLCL [P6.4, synthetic peptide CLGGGLCL derived from the COOH-terminal region of cysteine proteinase B of L. (L.) amazonensis] | 9 | 1.20 × 10^7 M^−1 S^−1 | 0.1089 | 100 | 127 | 140 | 66 | oscillation in their reactivity | – | – |
| EFCLGGGLC [P6.5, synthetic peptide … derived from the COOH-terminal region of cysteine proteinase B of L. (L.) amazonensis] | 0.7 | 6.40 × 10^7 M^−1 S^−1 | 0.0470 | 55 | 185 | 109 | 85 | oscillation in their reactivity | 27 | – |
| MVEQVICFD [P1.9, synthetic peptide … derived from the COOH-terminal region of cysteine proteinase B of L. (L.) amazonensis] | 74 | 1.57 × 10^6 M^−1 S^−1 | 0.1157 | 181 | 149 | 118 | 66 | oscillation in their reactivity | 120 | 115 |
| VEQVICFD [P1.10, synthetic peptide VEQVICFD derived from the COOH-terminal region of cysteine proteinase B of L. (L.) amazonensis] | 1 | 1.10 × 10^8 M^−1 S^−1 | 0.1230 | 227 | – | 123 | 44 | clear tendency to diminish their reactivity along the infection | 31 | – |
